Columns and labels:
[1] = test system: TRBC1 and TRBC2; test: On-target Amplicon-NGS in Pan T-cells, TRBC; format: cell-based, human
Description: (§1) T-cells were isolated […] buffy coats and nucleofected after two days. The buffy coats were procured from the Rigshospitalet in Copenhagen, Denmark. The Pan-T cells were enriched by negative selection using an Easy Sep Human T-cell Isolation Kit from StemCell Technologies. The RNPs were formed by mixing gRNAs with Art-Mad7mam+ prior to nucleofection with Jurkat or T-cells. In some cases, synthetic ssODNs (Table 11) with a length of 200 nt were included in the transfections to evaluate impact on frame shift mutation rates by HDR rather than relying on NHEJ alone in an effort to maximize functional disruption. The ssODNs were designed to comprise a deletion of the spacer and PAM sequence thereby resulting in a programmed frame shift. After transfection, the cells were cultivated and assayed for the different readouts. The nucleofection with dual gRNAs followed a similar protocol, but with minor differences in pre-assembling of the gRNAs. Briefly, the two dual RNAs (modulator and targeter) are combined in a molecular ratio of 1:1 (400 μM Modulator
(§2) At the genome level, Amplicon-NGS was used to determine the type and mutation frequency at the on-target site. The Amplicon-NGS assay is based on the amplification of the on-target site using specific primer pairs. The primers are designed to have the predicted cutting site at the center and a length of 180-280 nt. The amplicons are indexed for NGS and sequenced on an Illumina MiSeq system. The analysis was performed using the Crispresso script. Crispresso requires the input of a configuration file comprised of the specific gRNA sequence, primer sequences and the theoretical amplicon that is based on the alignment of the primer pair to the reference human genome GRCh38. In addition, for HDR analysis associated with ssODN-programmable editing a reference sequence with the specific mutations can be input into the configuration file. Crispresso aligns the sequencing reads to the reference amplicon and analyzes the mutation type and frequency −/+10 nt at the putative cut site of Art-Mad7mam+ based on the provided gRNA sequence. As output, Crispresso delivers different mutation types and their frequencies: Substitutions, INDELs, HDR Unmodified, HDR INDELs, HDR+substitutions.
(§3) To further test the effects of ssODNs, single and dual gRNAs were mixed with Art-MAD7mam+ nuclease, and in some cases included a ssODN designed to create a programmed disruption in the target gene. The freshly isolated Pan-T cells were activated and cultured for 2 days, and RNPs−/+ssODNs were transfected using the Lonza 96-well plate shuttle. […]

[2] = test system: TIM3; test: gNA validation: frameshift (ORF disruption) frequency, TIM3; format: cell-based, human; settings: Jurkat, CRISPResso2 ORF analysis
Description: Initial quality assessment of the obtained reads was performed with FastQC36. The sequencing data were aligned and analyzed with the CRISPResso2 software, using CRISPRessoBatch command with the parameters—cleavage_offset 1—quantification_window_size 10—quantification_window_center 1—expand_ambiguous_alignments for the INDEL frequency analysis. For the ORF disruption analysis, CRISPRessoBatch command with the parameters—cleavage_offset 1—coding_seq <EXON_SEQ>—quantification_window_size 0—quantification_window_center 1—expand_ambiguous_alignments was used. Modification rates from the CRISPResso2 software output were analyzed in Excel.
(§4) High-efficiency gNAs identified in our initial analysis were validated by assaying INDEL frequency for the top three or five gNAs for each of the selected immunologically relevant genes (FIG. 15). […] Alternating grey and white zones on the plot represent groups of three to five high-efficiency gNAs per locus. […] Using the CRISPresso2 software, the degree of open reading frame (ORF) disruption for each of the validated gNAs was estimated (FIG. 15). In addition, for four high-efficiency gNAs targeting three different exons at the PDCD1 locus, surface expression of the PDCD1 protein was measured by flow cytometry 4, 7, and 11 days post-transfection (data not shown).
Average fraction of INDELs leading to frameshifts (dashed line) is approx. 66%. […]

[3] = test system: PDCD1 protein; test: Surface expression of the PDCD1 protein by flow cytometry in Jurkat cells; format: cell-based, human; settings: flow cytometry 4, 7 and 11 days post-transfection, crPDCD1_2 value at day 4, same at day 11
Description: For detection of PDCD1 knock-out efficiency, approx. 250,000 Jurkat cells per sample were transferred onto 96-well V-bottom cell culture plates and assessed following a series of consecutive washing and staining steps. The first step included centrifuging the cells at 300 g for 5 minutes at 4° C., and discarding the supernatant. Afterwards, the cells were stained using 100 μL Cell Staining Buffer (Biolegend) with APC/Cyanine7 anti-human CD279 (PD-1) antibody (1:100: Biolegend) and incubated for 30 minutes at 4° C., in the dark. The cells were then centrifuged at 300 g for 5 minutes at 4° C., and the supernatant discarded. The next step included two repeats of centrifugation at 300 g for 5 minutes at 4° C., supernatant removal, and cell washing in 150 μL ice-cold Cell Staining Buffer (Biolegend). In the final step, the cells were re-suspended in 100 μL Cell Staining Buffer for the flow cytometry measurements (excitation: red laser; emission: […]).
as §4

[4] = test system: CSF2; test: Cutting efficiency by Amplicon-NGS in Jurkat cells, CSF2; format: cell-based, human
Description: as §1
At the genome level, Amplicon-NGS was used to determine the type and mutation frequency at the on-target site. The Amplicon-NGS assay is based on the amplification of the on-target site using specific primer pairs. […] Crispresso aligns the sequencing reads to the reference amplicon and analyzes the mutation type and frequency −/+10 nt at the putative cut site of Art-Mad7mam+ based on the provided gRNA sequence. […]
The cutting efficiency was calculated as the percentage of reads with any NHEJ modification (including insertions, deletions, and/or substitutions) of the total number of reads that were aligned to the reference amplicon. […]
The top gRNAs identified in the tiling experiments in, were further tested by performing additional nucleofections in Jurkat cells and measuring viability, INDEL formation by amplicon-NGS, and functional flow cytometry assays. […] For the Amplicon-NGS readout three days after transfection, genomic DNA was prepared, amplicons generated, and sequence analyzed. […]

[5] = test system: CSF2; test: On-target Amplicon-NGS in Pan T-cells, CSF2; format: cell-based, human
Description: as §1, §2, §3

[6] = test system: CSF2; test: Functional KO in Pan T-cells: intracellular CSF2 staining after PMA and Ionomycin; format: cell-based, human
Description: Protein expression for targeted genes was measured by antibody staining against the target protein to quantify functional disruption of the target gene. The efficiency of functional disruption was verified by antibody staining and quantified as the negative cell population by flow cytometry. TRBC, CD3E and CD40LG are located at the cell surface and living cells were stained with the corresponding antibodies. Since CSF2 is a secreted protein, cells were first activated, secretion was blocked, cells were fixed with formaldehyde, and permeabilized before the staining procedure. Given CD40LG and CSF2 are expressed upon stimulation of primary T-cells, cells were activated first to enhance their expression. The induction of CD40LG and CSF2 was achieved using anti-CD3/CD28 and PMA/Ionomycin, respectively.
The best CSF2 gRNA was identified as gCSF2_007 in the Jurkat experiment. In Pan T-cells, the cutting efficiency was approximately 65% and 45% and could be increased by ssODN inclusion to ˜80 and 70% for the regular and STAR design, respectively (FIG. 33E). […] The cells were treated with PMA and Ionomycin to strongly activate the cells and blocked the secretion of the protein with Golgiplug and Golgistop and stained the cells after fixation and permeabilization for the intracellular accumulated CSF2 proteins.

[7] = test system: human genes; test: Editing efficiency of tested crRNAs / guide nucleic acids (Tables 7-10) detected in human cells; format: cell-based; settings: for % Indel: tested crRNAs targeting human genes
[8] = target gene as given (Table 10)

gTRBC1_2_003: gRNA targeting both TRBC1 and TRBC2; dual form Targeter_TRBC1_2_003 UUGUAGAUAGCCAUCAGAAGCAGAGAUCU (dual-guide targeter with IDT AltR2 3' modification, chemistry undefined, further chemistry not given here)
lower INDEL frequency, dual vs regular configuration [1]: ~5%
perfect HDR rate ([1]; inclusion of ssODNs): ~40%
mutation rate ([1]; inclusion of ssODNs, all cases): > 90%
INDEL frequency at the on-target site ([1]; regular gRNA configuration): ~90%

crTIM3_3: validated high-efficiency gNA, TIM3 (guide TAAGTAGTAGCAGCAGCAGCA; spacer only, further chemistry not given here)
frameshifts frequency (fraction of frameshift to INDEL) [2]: 44%

crPDCD1_5: high-efficiency gNA targeting the PDCD1 locus (guide GTGCTAAACTGGTACCGCATG; spacer only, further chemistry not given here)
surface expression of the PDCD1 protein [3]: 85%

crPDCD1_3: high-efficiency gNA targeting the PDCD1 locus (guide CAGTGGCGAGAGAAGACCCCG; spacer only, further chemistry not given here)
surface expression of the PDCD1 protein [3]: 35%

gCSF2_007: best CSF2 gRNA; dual form Targeter_CSF2_007 UUGUAGAUCACAGGAGCCGACCUGCCUAC (synthetic gRNA ordered from IDT, chemistry not given here)
Average on-target editing efficiency ([4]; CSF2 gRNAs, Jurkat cells, Amplicon-NGS): 31.1
Total score ([4]; CSF2 gRNAs, combines on-target editing efficiency and predicted off-target score): 30.7
cutting efficiency (rank among the three CSF2 gRNAs) ([4]; Jurkat verification): highest
cutting efficiency ([5]; STAR design): ~45%
cutting efficiency ([5]; STAR design, ssODN inclusion): ~70%
cutting efficiency ([5]; regular design): approximately 65%
cutting efficiency ([5]; regular design, ssODN inclusion): ~80%
negative CSF2 cell population ([6]; dual gRNA): ~60%
negative CSF2 cell population ([6]; dual gRNA with the ssODN): ~80%
negative CSF2 cell population ([6]; regular gRNA with the ssODN): ~90%
negative CSF2 cell population ([6]; regular gRNA, 70% of control cells CSF2 positive): ~75%

crPDCD1_4: high-efficiency gNA targeting the PDCD1 locus (guide CTAGCGGAATGGGCACCTCAT; spacer only, further chemistry not given here)
surface expression of the PDCD1 protein [3]: 85%

crTIM3_1: validated high-efficiency gNA, TIM3 (guide CTTGTAAGTAGTAGCAGCAGC; spacer only, further chemistry not given here)
frameshifts frequency (fraction of frameshift to INDEL) [2]: 23%

gTRBC2_12: spacer targeting TRBC2, SEQ ID NO 1379, CCGGAGGTGAAGCCACAGTCT (chemistry not given here)
% Indel [7, 8]: 33.14%

gTRBC1 + 2_1 (guide AGCCATCAGAAGCAGAGATCT; chemistry not given here)
% Indel (TRBC1) ([7]; crRNA targeting TRBC1 + 2, value at TRBC1): 66.40%
% Indel (TRBC2) ([7]; crRNA targeting TRBC1 + 2, value at TRBC2): 74.7%

gTIGIT_15 (guide TAGGACCTCCAGGAAGATTCT; chemistry not given here)
% Indel ([7]; Target Gene TIGIT): 0.4%

gTIGIT_30 (guide TGTAACTCAGGACATTGAAGT; chemistry not given here)
% Indel ([7]; Target Gene TIGIT): 0.5%

gU6_4 (guide GCTTTATATATCTTGTGGAAA; chemistry not given here)
% Indel [7, 8]: 0.37%

gTRBC2_11 (guide AGACTGTGGCTTCACCTCCGG; chemistry not given here)
% Indel [7, 8]: 19.97%

gTIGIT_27 (guide CTCCTGAGGTCACCTTCCACA; chemistry not given here)
% Indel ([7]; Target Gene TIGIT): 1.6%

gTIGIT_21 (guide CTAGTCAACGCGACCACCACG; chemistry not given here)
% Indel ([7]; Target Gene TIGIT): 0.1%
